Tests used:
Experiment in all cases: Example B2 herbicidal action, post-emergence, pots in glasshouse, damage score 0-10
Type in all cases: in vivo
Settings in all cases: application post-emergence, rate 1000 g/ha, evaluated after 13 days
Ipomea hederaceae = system: Ipomea hederaceae
Protocol: (§1) Seeds of a variety of test species were sown in standard soil in pots. After 8 days cultivation (post-emergence) under controlled conditions in a glasshouse (at 24/16° C., day/night; 14 hours light; 65% humidity), the plants were sprayed with an aqueous spray solution derived from the formulation of the technical active ingredient in acetone/water (50:50) solution containing 0.5% Tween 20 (polyoxyethelyene sorbitan monolaurate, CAS RN 9005-64-5). The test plants were then grown in a glasshouse under controlled conditions in a glasshouse (at 24/16° C., day/night; 14 hours light; 65% humidity) and watered twice daily. After 13 days, the test was evaluated (10=total damage to plant; 0=no damage to plant).

Echinochloa crus-galli = system: Echinochloa crus-galli
Protocol: as §1

Solanum nigrum = system: Solanum nigrum
Protocol: as §1

Amaranthus retroflexus = system: Amaranthus retroflexus
Protocol: as §1

Setaria faberi = system: Setaria faberi
Protocol: as §1

Compound | IPOHE damage score (10=total damage to plant; 0=no damage to plant) (Ipomea hederaceae) | ECHCG damage score (10=total damage to plant; 0=no damage to plant) (Echinochloa crus-galli) | SOLNI damage score (10=total damage to plant; 0=no damage to plant) (Solanum nigrum) | AMARE damage score (10=total damage to plant; 0=no damage to plant) (Amaranthus retroflexus) | SETFA damage score (10=total damage to plant; 0=no damage to plant) (Setaria faberi)
COc1ccc(F)c(C2=C(OC(=O)C(C)(C)C)c3nccnc3N(CC(F)F)S2(=O)=O)c1Cl [Compound C25] | 9 | 6 | 10 | 9 | 0
CCN1c2nccnc2C(O)=C(c2ccccc2C(F)(F)F)S1(=O)=O [Compound D33] | 10 | 8 | 10 | 9 | 8
CCN1c2nccnc2C(OC(=O)C(C)C)=C(c2ccc(Cl)c(Cl)c2)S1(=O)=O [Compound C26] | 0 | 0 | 0 | 9 | 0
CCN1c2nccnc2C(OC(=O)C(C)(C)C)=C(c2c(F)cccc2C(F)(F)F)S1(=O)=O [Compound C43] | 5 | 5 | 6 | 5 | 3
CC(C)(C)C(=O)OC1=C(c2c(Cl)cccc2Cl)S(=O)(=O)N(CC(F)F)c2nccnc21 [Compound C28] | 6 | 2 | 6 | 7 | 2
CCN1c2nccnc2C(OC(=O)C(C)(C)C)=C(c2ccc(Cl)cc2C(F)(F)F)S1(=O)=O [Compound C15] | 8 | 7 | 9 | 9 | 2
O=S1(=O)C(c2cc(Cl)cc(C(F)(F)F)c2)=C(O)c2nccnc2N1CC(F)F [Compound D19] | 0 | 0 | 2 | 0 | 0
O=S1(=O)C(c2c(Cl)cccc2C(F)(F)F)=C(O)c2c(ncc[n+]2[O-])N1CC(F)F [Compound E2] | 8 | 6 | 9 | 8 | 8
O=S1(=O)C(c2ccc(Br)cc2C(F)(F)F)=C(O)c2nccnc2N1CC(F)F [Compound D56] | 10 | 7 | 9 | 10 | 6
CCN1c2nccnc2C(O)=C(c2ccccc2OC(F)(F)F)S1(=O)=O [Compound D5] | 9 | 4 | 10 | 10 | 6
CCSC(=O)OC1=C(c2c(Cl)ccc(Cl)c2C(F)(F)F)S(=O)(=O)N(CC(F)F)c2nccnc21 [Compound C103] | 6 | 7 | 9 | 8 | 6
O=S1(=O)C(c2cc(C(F)(F)F)ccc2Cl)=C(O)c2c(ncc[n+]2[O-])N1CC(F)F [Compound E1, 3-(2-chloro-5-trifluoromethyl-phenyl)-1-(2,2-difluoro-ethyl)-2,2-dioxo-5-oxy-1,2-dihydro-2-λ-6-thia-1,5,8-triaza-naphthalen-4-ol] | 7 | 3 | 9 | 4 | 1
CCSC(=O)OC1=C(c2c(Cl)ccc(Cl)c2Cl)S(=O)(=O)N(CC)c2nccnc21 [Compound C71] | 10 | 6 | 9 | 8 | 1
CCN1c2nccnc2C(OC(=O)C(C)(C)C)=C(c2cc(C(F)(F)F)ccc2C(F)(F)F)S1(=O)=O [Compound C46] | 5 | 4 | 6 | 4 | 0
O=S1(=O)C(c2cc(Cl)ccc2C(F)(F)F)=C(O)c2nccnc2N1CC(F)F [Compound D53] | 7 | 6 | 10 | 8 | 6
CCN1c2nccnc2C(OC(=O)C(C)(C)C)=C(c2cc(F)c(Cl)cc2Cl)S1(=O)=O [Compound C45] | 9 | 4 | 7 | 0 | 1
CC(C)(C)C(=O)OC1=C(c2cc(C(F)(F)F)ccc2C(F)(F)F)S(=O)(=O)N(CC(F)F)c2nccnc21 [Compound C44] | 10 | 9 | 10 | 10 | 6
C=CCN1c2nccnc2C(OC(=O)SCC)=C(c2cc(Cl)ccc2C(F)(F)F)S1(=O)=O [Compound C119] | 3 | 5 | 6 | 3 | 3
CSC(=O)OC1=C(c2ccc(Br)cc2C(F)(F)F)S(=O)(=O)N(CC(F)F)c2nccnc21 [Compound C133] | 8 | 8 | 10 | 10 | 7
O=S1(=O)C(c2cc(I)ccc2Cl)=C(O)c2nccnc2N1CC(F)F [Compound D29] | 7 | 2 | 7 | 5 | 3
CC(C)(C)C(=O)OC1=C(c2c(F)ccc(Br)c2Cl)S(=O)(=O)N(CC(F)F)c2nccnc21 [Compound C35] | 10 | 7 | 10 | 10 | 7

Reference: US8133849B2, “Herbicidal compounds” (Syngenta Limited, priority 2007, dated 2012)
